Test results published in ChEMBL document CHEMBL1201862, “PubChem BioAssay data set” (2004).
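Exposure lasted 48 hours, with cells grown in 96-well plates and compounds tested at five concentrations. GI50 is the concentration that inhibits growth by half.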 Calls of active or inactive are those of the source. Cut-off read from the data, not from the text of the source: active = GI50 up to about 1.1 µM and inactive = higher.

How the values were obtained:
Test in all cases: inhibition of tumour cell growth, NCI panel, 48 h
786-0 = tested on: 786-0
A498 = tested on: A498
A549 = tested on: A549
ACHN = tested on: ACHN
BT-549 = tested on: BT-549
CAKI-1 = tested on: CAKI-1
CCRF-CEM = tested on: CCRF-CEM
COLO 205 = tested on: COLO 205
DU-145 = tested on: DU-145
EKVX = tested on: EKVX
HCC 2998 = tested on: HCC 2998
HCT-116 = tested on: HCT-116
HCT-15 = tested on: HCT-15
HL-60 = tested on: HL-60
HOP-62 = tested on: HOP-62
HOP-92 = tested on: HOP-92
HT-29 = tested on: HT-29
Hs-578T = tested on: Hs-578T
IGROV-1 = tested on: IGROV-1
K562 = tested on: K562
KM12 = tested on: KM12
LOX IMVI = tested on: LOX IMVI
M14 = tested on: M14
MCF7 = tested on: MCF7
MDA-MB-231 = tested on: MDA-MB-231
MDA-MB-435 = tested on: MDA-MB-435
MDA-N = tested on: MDA-N
MOLT-4 = tested on: MOLT-4
Malme-3M = tested on: Malme-3M
NCI-H226 = tested on: NCI-H226
NCI-H23 = tested on: NCI-H23
NCI-H460 = tested on: NCI-H460
NCI-H522 = tested on: NCI-H522
NCI/ADR-RES = tested on: NCI/ADR-RES
OVCAR-3 = tested on: OVCAR-3
OVCAR-4 = tested on: OVCAR-4
OVCAR-5 = tested on: OVCAR-5
OVCAR-8 = tested on: OVCAR-8
PC-3 = tested on: PC-3
RPMI-8226 = tested on: RPMI-8226
RXF 393 = tested on: RXF 393
SF-268 = tested on: SF-268
SF-295 = tested on: SF-295
SF-539 = tested on: SF-539
SK-MEL-28 = tested on: SK-MEL-28
SK-MEL-2 = tested on: SK-MEL-2
SK-MEL-5 = tested on: SK-MEL-5
SK-OV-3 = tested on: SK-OV-3
SN12C = tested on: SN12C
SNB-19 = tested on: SNB-19
SNB-75 = tested on: SNB-75
SW-620 = tested on: SW-620
T47D = tested on: T47D
TK-10 = tested on: TK-10
U-251 = tested on: U-251
UACC-257 = tested on: UACC-257
UACC-62 = tested on: UACC-62
UO-31 = tested on: UO-31
SR = tested on: SR

## O=C(O)CCC1COc2ccccc2O1 (stereo not given)
786-0
  GI50: > 10 µM (inactive)
A498
  GI50: > 10 µM (inactive)
A549
  GI50: > 10 µM (inactive)
ACHN
  GI50: > 10 µM (inactive)
BT-549
  GI50: > 10 µM (inactive)
CAKI-1
  GI50: > 10 µM (inactive)
CCRF-CEM
  GI50: > 10 µM (inactive)
COLO 205
  GI50: > 10 µM (inactive)
DU-145
  GI50: > 10 µM (inactive)
EKVX
  GI50: > 10 µM (inactive)
HCC 2998
  GI50: > 10 µM (inactive)
HCT-116
  GI50: > 10 µM (inactive)
HCT-15
  GI50: > 10 µM
HL-60
  GI50: > 10 µM (inactive)
HOP-62
  GI50: > 10 µM (inactive)
HOP-92
  GI50: > 10 µM (inactive)
HT-29
  GI50: > 10 µM (inactive)
Hs-578T
  GI50: > 10 µM (inactive)
IGROV-1
  GI50: > 10 µM (inactive)
K562
  GI50: > 10 µM (inactive)
KM12
  GI50: > 10 µM (inactive)
LOX IMVI
  GI50: > 10 µM (inactive)
M14
  GI50: > 10 µM (inactive)
MCF7
  GI50: > 10 µM (inactive)
MDA-MB-231
  GI50: > 10 µM (inactive)
MDA-MB-435
  GI50: > 10 µM (inactive)
MDA-N
  GI50: > 10 µM (inactive)
MOLT-4
  GI50: > 10 µM (inactive)
Malme-3M
  GI50: > 10 µM (inactive)
NCI-H226
  GI50: > 10 µM (inactive)
NCI-H23
  GI50: > 10 µM (inactive)
NCI-H460
  GI50: > 10 µM (inactive)
NCI-H522
  GI50: > 10 µM (inactive)
NCI/ADR-RES
  GI50: > 10 µM (inactive)
OVCAR-3
  GI50: > 10 µM (inactive)
OVCAR-4
  GI50: > 10 µM (inactive)
OVCAR-5
  GI50: > 10 µM (inactive)
OVCAR-8
  GI50: > 10 µM (inactive)
PC-3
  GI50: > 10 µM (inactive)
RPMI-8226
  GI50: > 10 µM (inactive)
RXF 393
  GI50: > 10 µM (inactive)
SF-268
  GI50: > 10 µM (inactive)
SF-295
  GI50: > 10 µM (inactive)
SF-539
  GI50: > 10 µM (inactive)
SK-MEL-28
  GI50: > 10 µM (inactive)
SK-MEL-2
  GI50: > 10 µM (inactive)
SK-MEL-5
  GI50: > 10 µM (inactive)
SK-OV-3
  GI50: > 10 µM (inactive)
SN12C
  GI50: > 10 µM (inactive)
SNB-19
  GI50: > 10 µM (inactive)
SNB-75
  GI50: > 10 µM (inactive)
SW-620
  GI50: > 10 µM (inactive)
T47D
  GI50: > 10 µM (inactive)
TK-10
  GI50: > 10 µM (inactive)
U-251
  GI50: > 10 µM (inactive)
UACC-257
  GI50: > 10 µM (inactive)
UACC-62
  GI50: > 10 µM (inactive)
UO-31
  GI50: > 10 µM (inactive)

## CC1(C)C2CC(O)C1(C)CC2=O (stereo not given)
786-0
  GI50: > 100 µM (inactive)
A549
  GI50: > 100 µM (inactive)
ACHN
  GI50: > 100 µM (inactive)
BT-549
  GI50: > 100 µM (inactive)
CCRF-CEM
  GI50: > 100 µM (inactive)
COLO 205
  GI50: > 100 µM (inactive)
DU-145
  GI50: > 100 µM (inactive)
HCC 2998
  GI50: > 100 µM (inactive)
HCT-116
  GI50: > 100 µM (inactive)
HCT-15
  GI50: > 100 µM
HL-60
  GI50: > 100 µM (inactive)
HOP-62
  GI50: > 100 µM (inactive)
HOP-92
  GI50: > 100 µM (inactive)
HT-29
  GI50: > 100 µM (inactive)
Hs-578T
  GI50: > 100 µM (inactive)
IGROV-1
  GI50: > 100 µM (inactive)
K562
  GI50: > 100 µM (inactive)
KM12
  GI50: > 100 µM (inactive)
LOX IMVI
  GI50: > 100 µM (inactive)
M14
  GI50: > 100 µM (inactive)
MCF7
  GI50: > 100 µM (inactive)
MDA-MB-231
  GI50: > 100 µM (inactive)
MDA-MB-435
  GI50: > 100 µM (inactive)
MDA-N
  GI50: > 100 µM (inactive)
MOLT-4
  GI50: > 100 µM (inactive)
Malme-3M
  GI50: > 100 µM (inactive)
NCI-H226
  GI50: > 100 µM (inactive)
NCI-H23
  GI50: > 100 µM (inactive)
NCI-H460
  GI50: > 100 µM (inactive)
NCI-H522
  GI50: > 100 µM (inactive)
NCI/ADR-RES
  GI50: > 100 µM (inactive)
OVCAR-3
  GI50: > 100 µM (inactive)
OVCAR-4
  GI50: > 100 µM (inactive)
OVCAR-5
  GI50: > 100 µM (inactive)
OVCAR-8
  GI50: > 100 µM (inactive)
PC-3
  GI50: > 100 µM (inactive)
RPMI-8226
  GI50: > 100 µM (inactive)
RXF 393
  GI50: > 100 µM (inactive)
SF-268
  GI50: > 100 µM (inactive)
SF-295
  GI50: > 100 µM (inactive)
SF-539
  GI50: > 100 µM (inactive)
SK-MEL-28
  GI50: 3.21 µM (inactive)
SK-MEL-5
  GI50: > 100 µM (inactive)
SK-OV-3
  GI50: > 100 µM (inactive)
SN12C
  GI50: > 100 µM (inactive)
SNB-19
  GI50: > 100 µM (inactive)
SNB-75
  GI50: > 100 µM (inactive)
SR
  GI50: > 100 µM (inactive)
SW-620
  GI50: > 100 µM (inactive)
T47D
  GI50: > 100 µM (inactive)
TK-10
  GI50: > 100 µM (inactive)
U-251
  GI50: > 100 µM (inactive)
UACC-257
  GI50: > 100 µM (inactive)
UACC-62
  GI50: > 100 µM (inactive)
UO-31
  GI50: > 100 µM (inactive)

## NC(CCC(=O)O)C(=O)N1CCN(c2nc(N3CCCC3)c3nc(Cl)c(NCc4ccccc4)nc3n2)CC1 (stereo not given)
786-0
  GI50: 12.1 µM (inactive)
A549
  GI50: 12.5 µM (inactive)
ACHN
  GI50: 15.1 µM (inactive)
BT-549
  GI50: 12.1 µM (inactive)
CAKI-1
  GI50: 17.8 µM (inactive)
CCRF-CEM
  GI50: 7.19 µM (inactive)
COLO 205
  GI50: 10.7 µM (inactive)
DU-145
  GI50: 8.43 µM (inactive)
EKVX
  GI50: 13.8 µM (inactive)
HCC 2998
  GI50: 11.4 µM (inactive)
HCT-116
  GI50: 13.9 µM (inactive)
HCT-15
  GI50: 14 µM
HL-60
  GI50: 7.13 µM (inactive)
HOP-62
  GI50: 13.2 µM (inactive)
HOP-92
  GI50: 15.8 µM (inactive)
HT-29
  GI50: 9.95 µM (inactive)
Hs-578T
  GI50: 20 µM (inactive)
IGROV-1
  GI50: 21.2 µM (inactive)
K562
  GI50: 12.7 µM (inactive)
KM12
  GI50: 16.1 µM (inactive)
LOX IMVI
  GI50: 14.6 µM (inactive)
M14
  GI50: 10 µM (inactive)
MCF7
  GI50: 7.24 µM (inactive)
MDA-MB-231
  GI50: 14.4 µM (inactive)
MDA-MB-435
  GI50: 9.48 µM (inactive)
MDA-N
  GI50: 10.1 µM (inactive)
MOLT-4
  GI50: 7.53 µM (inactive)
Malme-3M
  GI50: 17.3 µM (inactive)
NCI-H226
  GI50: 12.3 µM (inactive)
NCI-H23
  GI50: 15.4 µM (inactive)
NCI-H460
  GI50: 10.3 µM (inactive)
NCI-H522
  GI50: 14.8 µM (inactive)
NCI/ADR-RES
  GI50: 20.8 µM (inactive)
OVCAR-3
  GI50: 8.71 µM (inactive)
OVCAR-4
  GI50: 10.5 µM (inactive)
OVCAR-5
  GI50: 18.7 µM (inactive)
OVCAR-8
  GI50: 15.6 µM (inactive)
PC-3
  GI50: 13.3 µM (inactive)
RPMI-8226
  GI50: 5.79 µM (inactive)
SF-268
  GI50: 13.1 µM (inactive)
SF-295
  GI50: 11.6 µM (inactive)
SF-539
  GI50: 13.2 µM (inactive)
SK-MEL-28
  GI50: 9.48 µM (inactive)
SK-MEL-2
  GI50: 15.6 µM (inactive)
SK-MEL-5
  GI50: 8.04 µM (inactive)
SK-OV-3
  GI50: 18 µM (inactive)
SN12C
  GI50: 15.8 µM (inactive)
SNB-19
  GI50: 17.5 µM (inactive)
SNB-75
  GI50: 12 µM (inactive)
SR
  GI50: 3.68 µM (inactive)
SW-620
  GI50: 18.2 µM (inactive)
T47D
  GI50: 6.64 µM (inactive)
TK-10
  GI50: 17.1 µM (inactive)
U-251
  GI50: 13.8 µM (inactive)
UACC-257
  GI50: 14.5 µM (inactive)
UACC-62
  GI50: 11.2 µM (inactive)
UO-31
  GI50: 9.29 µM (inactive)
